According to patent US6380181B1, “Synthetic catechol derivatives, method for production and use thereof” (priority 1996, dated 2002):
≈ marks a conversion by molar mass, not a printed value.

Key:
Format in all cases: cell-based
[1] = tested on: Pseudomonas aeruginosa SG 137 (carbenicillin-resistant); assay: Agar diffusion test; details: concentration 100 μg/ml; P. aeruginosa SG 137
[2] = tested on: Pseudomonas aeruginosa KW 799 WT (wild type); assay: Agar diffusion test; details: concentration 100 μg/ml; P. aeruginosa KW799/WT
[3] = tested on: Pseudomonas aeruginosa KW 799/61 (penetration mutant); details: concentration 100 μg/ml; P. aeruginosa KW799/61
[4] = tested on: Pseudomonas aeruginosa ATCC 9027 (wild type); assay: Agar diffusion test; details: concentration 100 μg/ml; P. aeruginosa ATCC 9027
[5] = tested on: Pseudomonas aeruginosa NCTC 10662; assay: Agar diffusion test; details: concentration 100 μg/ml; P. aeruginosa NCTC 10662
[6] = tested on: Pseudomonas aeruginosa NCTC 10701; assay: Agar diffusion test; details: concentration 100 μg/ml; P. aeruginosa NCTC 10701
[7] = tested on: Pseudomonas aeruginosa NPS1 (plasmid-coded β-lactamase); details: concentration 100 μg/ml; P. aeruginosa NPS 1
[8] = tested on: Pseudomonas aeruginosa Oxa6 (plasmid-coded β-lactamase); details: concentration 100 μg/ml; P. aeruginosa OXA 6
[9] = tested on: E. coli DC2 (penetration mutant); details: concentration 100 μg/ml
E. coli DC0 (wild type) = assay: Agar diffusion test; details: concentration 100 μg/ml
[10] = tested on: Klebsiella pneumoniae SG 117; assay: Agar diffusion test; details: concentration 100 μg/ml
[11] = tested on: Stenotrophomonas maltophilia GN 12873; assay: Agar diffusion test; details: concentration 100 μg/ml
[12] = tested on: Stenotrophomonas maltophilia IMET 10402; assay: Agar diffusion test; details: concentration 100 μg/ml
[13] = tested on: Salmonella gallinarum ATCC 9184; details: concentration 100 μg/ml; Salmonella galinarum ATCC 9184
E. coli ATCC 25922 = assay: Microdilution test (MIC)
Procedure: (§1) The minimum inhibiting concentrations (MICs) were determined for the following bacterial strains: Pseudomonas aeruginosa NCTC 10701, NCTC 10662, SG 137, ATCC 27853, KW 799 WT and KW 799/61, E. coli DCO, DC2 and ATCC 25922, Serratia marcescens SG 621; Salmonella gallinarum ATCC 9184, Klebsiella pneumoniae ATCC 10031 and SG 117.

[14] = tested on: Klebsiella pneumoniae ATCC 10031; assay: Microdilution test (MIC)
Procedure: as §1

[15] = tested on: Klebsiella pneumoniae SG 117; assay: Microdilution test (MIC)
Procedure: as §1

[16] = tested on: Pseudomonas aeruginosa ATCC 27853; assay: Microdilution test (MIC); details: P. aeruginosa ATCC 27853
Procedure: as §1

[17] = tested on: Pseudomonas aeruginosa NCTC 10701; assay: Microdilution test (MIC); details: P. aeruginosa NCTC 10701
Procedure: as §1

[18] = tested on: Pseudomonas aeruginosa SG 137; assay: Microdilution test (MIC); details: P. aeruginosa SG 137
Procedure: as §1

[19] = tested on: Serratia marcescens SG 621; assay: Microdilution test (MIC)
Procedure: as §1

[20] = tested on: Pseudomonas aeruginosa KW 799 WT; assay: Microdilution test (MIC); details: P. aeruginosa KW 799/WT
Procedure: as §1
(§2) With the test germs KW 799/WT and /61 of Pseudomonas and DCO and DC2 of E. coli, the effect of improved penetration capacity on the efficacy of the substances was investigated.

[21] = tested on: Pseudomonas aeruginosa KW 799/61; assay: Microdilution test (MIC)
Procedure: as §1, §2

E. coli DC2 = assay: microbe, parasite or virus in culture
Procedure: as §1, §2

[22] = tested on: Salmonella gallinarum ATCC 9184; assay: microbe, parasite or virus in culture; details: Salmonella gallinarum ATCC9184
Procedure: as §1

E. coli mutant KB4 ompF− = tested on: E. coli mutant KB4 ompF−
From the text: (§3) The efficacy against β-lactamase formers and against multi-resistant germs is therefore due to a new type of mechanism for overcoming the penetration resistance, by means of which the ratio of active ingredient to enzyme in the bacterial cell is influenced so that not all antibiotic molecules are inactivated before they reach their target.

E. coli mutant KB5 ompC− = tested on: E. coli mutant KB5 ompC−
From the text: as §3

[23] = tested on: E. coli mutant PLB3268 ompF++; details: E. coli mutant PLB3268 ompF++ (ompF super-expressed)
From the text: as §3
PLB268: ompF- was super-expressed.

[24] = tested on: E. coli mutant BR185 tonB−
E. coli AB2847 tonB+ = tested on: E. coli AB2847 tonB+
E. coli AB 2847 = tested on: E. coli AB 2847
From the text: (§4) In the indicator mutants, the synthesis of the respective siderophores, e.g. pyoverdin, pyochelin, enterobactin, aerobactin or yersiniabactin, or the biosynthesis of aromatic compounds, is blocked, or there is a lack of receptors for enterobactin, pyochelin or pyoverdin and for other important components for the bacterial transport of iron (e.g. the membrane proteins Cir, Fiu, FepA and TonB). Under conditions where there is a lack of iron, these mutants therefore cannot grow or can only grow to a very slight extent. In particular, the following indicator mutants were used: Pseudomonas aeruginosa PAO 6609, K 407, 690; E. coli AB 2847, Salmonella typhimurium enb-7, TA 270; Klebsiella pneumoniae KN 4401; Yersinia enterocolitica WAH; Proteus mirabilis 12 (wild); Proteus vulgaris 718 (wild) and Morganella morganii SBK3 (wild). […] The controls used were ferrioxamine E for the Pseudomonas strains, ferrioxamine G and enterobactin for the Salmonella strains, ferrichrome for the E. coli, Klebsiella and Y. enterocol. strains, and 3,4-dihydroxybenzylidene-2,4,6-trimethylaniline for Morganella morganii (see the above literature reference by R. Reissbrodt et al.).
(§5) The annotations + and (+) relate to non-specific promotion of growth.

[25] = tested on: Klebsiella pneumoniae KN 4401; details: Klebsiella KN 4401
From the text: as §4, §5

[26] = tested on: Morganella morganii SBK3 (wild)
From the text: as §4, §5

[27] = tested on: Proteus mirabilis 12 (wild)
From the text: as §4, §5

[28] = tested on: Proteus vulgaris 718 (wild)
From the text: as §4, §5

[29] = tested on: Pseudomonas aeruginosa 690
From the text: as §4, §5

[30] = tested on: Pseudomonas aeruginosa K 407; details: Pseudomonas aeruginosa K407
From the text: as §4, §5

[31] = tested on: Pseudomonas aeruginosa PAO 6609
From the text: as §4, §5

[32] = tested on: Salmonella typhimurium TA 2700
From the text: as §4, §5

[33] = tested on: Salmonella typhimurium enb-7
From the text: as §4, §5

[34] = tested on: Yersinia enterocolitica WAH; details: Y. enterocol. WAH
From the text: as §4, §5

| Structure (SMILES) | inhibition spot diameter in the agar diffusion test [1] [mm] | inhibition spot diameter in the agar diffusion test [2] [mm] | inhibition spot diameter in the agar diffusion test [3] [mm] | inhibition spot diameter in the agar diffusion test [4] [mm] | inhibition spot diameter in the agar diffusion test [5] [mm] | inhibition spot diameter in the agar diffusion test [7] [mm] | inhibition spot diameter in the agar diffusion test [8] [mm] | inhibition spot diameter in the agar diffusion test [9] [mm] | inhibition spot diameter in the agar diffusion test (E. coli DC0 (wild type)) [mm] | inhibition spot diameter in the agar diffusion test [10] [mm] | Growth areas of siderophore indicator strains (diameter) [25] [mm] | Growth areas of siderophore indicator strains (diameter) [26] [mm] | Growth areas of siderophore indicator strains (diameter) [27] [mm] | Growth areas of siderophore indicator strains (diameter) [28] [mm] | Growth areas of siderophore indicator strains (diameter) [29] [mm] | Growth areas of siderophore indicator strains (diameter) [30] [mm] | Growth areas of siderophore indicator strains (diameter) [31] [mm] | Growth areas of siderophore indicator strains (diameter) [32] [mm] | Growth areas of siderophore indicator strains (diameter) [33] [mm] | Growth areas of siderophore indicator strains (diameter) [34] [mm] | other results |
| --- | --- | --- | --- | --- | --- | --- | --- | --- | --- | --- | --- | --- | --- | --- | --- | --- | --- | --- | --- | --- | --- |
| CC(=O)Oc1cccc(C(=O)N[C@@H](C)C(=O)N[C@@H](C(=O)N[C@@H]2C(=O)N3[C@@H]2SC(C)(C)[C@@H]3C(=O)O)c2ccccc2)c1OC(C)=O [Substance 27, N-[L-2-(2,3-Diacetoxybenzoylamino)-propionyl]-ampicillin] | 22 | 30 | 37 | 19 | 16 | 10 | 12 | 30 | 21 | 17 | – | – | – | – | – | – | – | – | – | – | inhibition spot diameter in the agar diffusion test [6]: 0 mm; inhibition spot diameter in the agar diffusion test [11]: 22 mm; inhibition spot diameter in the agar diffusion test [12]: 29 mm; inhibition spot diameter in the agar diffusion test [13]: 24 mm; MIC values, microdilution test (E. coli ATCC 25922): 6.25 µg/mL (≈ 9.76 µM); MIC values, microdilution test [14]: 0.4 µg/mL (≈ 0.624 µM); MIC values, microdilution test [15]: 50 µg/mL (≈ 78 µM); MIC values, microdilution test [16]: 6.25 µg/mL (≈ 9.76 µM); MIC values, microdilution test [17]: 0.4 µg/mL (≈ 0.624 µM); MIC values, microdilution test [18]: 3.12 µg/mL (≈ 4.87 µM); MIC values, microdilution test [19]: 50 µg/mL (≈ 78 µM); MIC values, microdilution test [20]: 0.78 µg/mL (≈ 1.22 µM); MIC values, microdilution test [21]: 0.2 µg/mL (≈ 0.312 µM); MIC values, microdilution test (E. coli DC2): 0.4 µg/mL (≈ 0.624 µM); MIC values, microdilution test [22]: 1.56 µg/mL (≈ 2.43 µM); inhibition spot diameter in agar diffusion test (E. coli mutant KB4 ompF−): 8.5 mm; inhibition spot diameter in agar diffusion test (E. coli mutant KB5 ompC−): 7.5 mm; inhibition spot diameter in agar diffusion test [23]: 14 mm; inhibition spot diameter in agar diffusion test [24]: 1 mm; inhibition spot diameter in agar diffusion test (E. coli AB2847 tonB+): 7 mm |
| CC(=O)Oc1cccc(C(=O)Nc2ccccc2C(=O)N[C@@H](C(=O)N[C@@H]2C(=O)N3[C@@H]2SC(C)(C)[C@@H]3C(=O)O)c2ccccc2)c1OC(C)=O [Substance 28, N-[2-(2,3-Diacetoxybenzoylamino)-benzoyl]-ampicillin] | 20 | 27 | 31 | 18 | 17 | 18 | 19 | 27 | 23 | 17 | – | – | – | – | – | – | – | – | – | – | inhibition spot diameter in the agar diffusion test [11]: 20 mm; inhibition spot diameter in the agar diffusion test [12]: 24 mm; MIC values, microdilution test [15]: 25 µg/mL (≈ 36.3 µM); MIC values, microdilution test [17]: 0.78 µg/mL (≈ 1.13 µM); MIC values, microdilution test [18]: 1.56 µg/mL (≈ 2.27 µM); MIC values, microdilution test [19]: 6.25 µg/mL (≈ 9.07 µM); MIC values, microdilution test [20]: 1.56 µg/mL (≈ 2.27 µM); MIC values, microdilution test [21]: 0.4 µg/mL (≈ 0.581 µM); MIC values, microdilution test (E. coli DC2): 0.4 µg/mL (≈ 0.581 µM); MIC values, microdilution test [22]: 1.56 µg/mL (≈ 2.27 µM); inhibition spot diameter in agar diffusion test (E. coli mutant KB4 ompF−): 11.5 mm; inhibition spot diameter in agar diffusion test (E. coli mutant KB5 ompC−): 11 mm; inhibition spot diameter in agar diffusion test [23]: 13 mm; inhibition spot diameter in agar diffusion test [24]: 0 mm; inhibition spot diameter in agar diffusion test (E. coli AB2847 tonB+): 8.5 mm |
| O=C(O)c1ccc(N=Cc2cccc(O)c2O)c(O)c1 [Substance 5] | – | – | – | – | – | – | – | – | – | – | 0 | 21 | 19 | 21 | 0 | 0 | 0 | 0 | 0 | 0 | Growth areas of siderophore indicator strains (diameter) (E. coli AB 2847): 15 mm |
| O=C(O)c1cc(O)c(O)c(C=NNC(=O)c2cccc(O)c2O)c1 [Substance 13, 3-formyl-4,5-dihydroxybenzoic Acid-(2,3-dihydroxy-benzhydrazone)] | – | – | – | – | – | – | – | – | – | – | 15 | 24 | 23 | 23 | 10 | 11 | 10 | 23 | 18 | 10 | – |
| O=C(O)c1ccc(O)c(N=Cc2cccc(O)c2O)c1 [Substance 3] | – | – | – | – | – | – | – | – | – | – | 32 | 20 | 18 | 18 | 0 | 0 | 0 | 0 | 28 | 0 | Growth areas of siderophore indicator strains (diameter) (E. coli AB 2847): 22 mm |
